Laboratory results: US4810705A, “Triazolo [3,4-b]pyridazines, process for their preparation and pharmaceutical compositions containing them” (priority 1984, dated 1989)
Where two headings read alike, the source gives them in different places.

What was measured:
benzodiazepine receptor = assay: Displacement of tritiated flunitrazepam from the benzodiazepine receptor (synaptic preparations of rat brain); type: binding; details: tritiated flunitrazepam (60 Ci/mM), 1.1 nM final, read-out: median effective concentration (IC50)
Protocol: ABILITY OF THE DERIVATIVES TO DISPLACE TRITIATED FLUNITRAZEPAM FROM THE BENZODIAZEPINE RECEPTOR
The studies were carried out on synaptic preparations of rat brain in accordance with the method described by Squives and Braestrup (Nature, 1977, 266, pages 732 to 734) and Mohler and Okada (Science, 1977, 198, pages 849 to 851).
The tritiated flunitrazepam (60 Ci/mM) was used at a final concentration of 1.1 nM. The results obtained with various products of the invention are shown in Table III and are expressed as median effective concentration (IC50) in μM.

[1] = Acute oral toxicity in female Charles River CD1 mice; details: mouse, in vivo, read-out: % toxicity (percentage of dead animals)
Protocol: Finally, the products of the invention were studied for their toxicity.
The studies were carried out on groups of 5 female Charles River mice of the CD1 strain, weighing between 20 and 24 g. The products were administered orally, diluted in 5% gum arabic. The acute toxicity was recorded during the 72 hours following administration of the product.
The results below (percentage of dead animals) were obtained as a function of the dose administered.

[2] = test system: myorelaxation induced by diazepam; assay: Antagonism of diazepam myorelaxation, traction test in mice; type: in vivo; details: 15 min before diazepam 3 mg/kg i.p., test 60 min after product; for ED50: Mus musculus, 1 h, read-out: Antagonism of the myorelaxation, 50% effective dose (ED50)
Protocol: (a) Myorelaxant properties.
The studies were carried out by means of the traction test (J. R. Boissier et al., Archives Internationales de Pharmacodynamie, 1961, 135, pages 29-49). This test determines the ability of mice, placed with the front paws on a horizontally stretched wire, to grip with the back paws. The animals which have not brought the back paws onto the wire in less than 5 seconds are considered to be in a state of myorelaxation.
The products are administered 15 minutes before the intraperitoneal injection of a dose of 3 mg/kg of diazepam and the test is performed 60 minutes after administration of the product to be studied. The study was carried out on groups of 10 mice per dose.

[3] = test system: anxiolytic effect of diazepam; assay: Antagonism of anxiolytic effect of diazepam, approach-avoidance conflict test in rats; type: in vivo; details: 60 min before diazepam 4 mg/kg i.p.
Protocol: The studies were carried out on rats in the approach-avoidance conflict test (L. Cook and A. B. Davidson, Effects of behaviorally active drugs in a conflict-punishment procedure in rats. In: The Benzodiazepines, S. Garattini, E. Mussini and L. O. Randall, editors, Raven Press, New York, 1973, 327-345).
A representative product of the invention, SR 95 195, was administered intraperitoneally 60 minutes before an anxiolytic dose of diazepam (4 mg/kg i.p.). The test was performed 30 minutes after administration of the diazepam.

food intake = assay: Food intake of fasted rats; type: in vivo; details: 40 mg/kg orally, first hour
Protocol: Furthermore, the products according to the invention were studied for their ability to reduce the food intake of fasted rats.
The studies were carried out on isolated female rats (200 to 240 g) trained to consume their food during a period of 4 hours per day. On the day of the test, 60 minutes before the food is provided, the animals receive either the product to be studied or the vehicle of administration. The quantity of food ingested during the first hour is determined.
The values shown in the table are the mean values for groups of 6 rats.

Row | Compound | IC50 (benzodiazepine receptor) | mortality at 72 h ([1]; 250 mg/kg orally) | mortality at 72 h ([1]; 500 mg/kg orally) | mortality at 72 h ([1]; 1000 mg/kg orally) | other results
1 | c1ccc(-c2cnn3cnnc3c2)cc1 [SR 95 194, 7-Phenyl-1,2,4-triazolo[4,3-b]pyridazine] | 0.049 mM | 0% | 0% | 100% | 
2 | Cc1nnc2cc(-c3ccccc3)cnn12 [SR 95 195] | 0.009 mM | 0% | 0% | 80% | ED50 [2]: 26 mg/kg; % antagonism (anxiolytic effect of diazepam) ([3]; 1.25 mg/kg i.p.): 26%; % antagonism (anxiolytic effect of diazepam) ([3]; 6.25 mg/kg i.p.): 74%; % antagonism (anxiolytic effect of diazepam) ([3]; 25 mg/kg i.p.): 100%; Food intake (food intake; 60 min before food, fasted female rats, mean, groups of 6): 8.6 ± 1.5 g; Food intake, % variation relative to the control animals (food intake; p < 0.01, Student's test): -51%
3 | Cc1nnc2cc(Cc3ccccc3)cnn12 [SR 95 252] | 0.027 mM | 0% | 0% | 100% | 
4 | COc1ccc(-c2cnn3c(C)nnc3c2)cc1 [SR 95 287, 7-(4-Methoxyphenyl)-3-methyl-1,2,4-triazolo[4,3-b]pyridazine] |  | 0% | 0% | 0% | 
5 | Cc1nnc2cc(-c3ccc(Cl)cc3)cnn12 [SR 95 369] |  | 0% | 100% | 100% | 
6 | Cc1ccc(-c2cnn3c(C)nnc3c2)cc1 [SR 95 370] |  | 40% | 100% | 100% | 
7 | Cc1nnc2cc(-c3cccc(Cl)c3)cnn12 [SR 95 398] | 0.0026 mM | 0% | 0% |  | ED50 [2]: 20 mg/kg
8 | Cc1nnc2cc(CCc3ccccc3)cnn12 [SR 95 410] |  | 0% | 0% | 0% | 
9 | Cc1nnc2cc(-c3ccccc3Cl)cnn12 [SR 95 437] |  | 0% | 0% |  | 
10 | c1ccc(Cc2nnc3cc(-c4ccccc4)cnn23)cc1 [SR 95 491, 7-Phenyl-3-benzyl-1,2,4-triazolo[4,3-b]pyridazine] | 0.0045 mM |  |  |  | 
11 | Clc1ccc(-c2nnc3cc(-c4ccccc4)cnn23)cc1 [SR 95 492] |  | 0% | 0% |  | 
12 | c1ccc(-c2cnn3c(-c4ccccc4)nnc3c2)cc1 [SR 95 494] | 0.05 mM | 0% | 0% |  | 
13 | Cc1nnc2cc(-c3cccc(C(F)(F)F)c3)cnn12 [SR 95 533] | 0.0029 mM |  |  |  | Antagonism of the myorelaxation, effect (dose) ([2]; at 100 mg/kg): 100%
